# pIC50: −log10 of the molar value. “Also recorded” adds a separate entry of the source.
# Tests used:
# [1] = system: MDA-MB-231 TNBC cells; test: In vitro growth inhibition (SRB), MDA-MB-231; assay type: cell-based
# Procedure: (§1) In vitro growth inhibition assay: Growth inhibitory potency was evaluated using the SRB assay. Briefly, cells were plated in 96-well in triplicate and treated with drugs (0.0065 μM to 100 μM) 24 h after seeding. Following drug treatment, the cells were fixed using 50 μl of cold TCA (50%) for 1 h at 4° C., washed five times with tap water, and stained for 30 min at room temperature with SRB (0.4%) in acetic acid (0.5%). The plates were subsequently rinsed five times with acetic acid (1%) and allowed to air dry. The resulting purple residue was dissolved in Tris base (200 μl, 10 mM), and optical densities read on a ELx808 BioTek microplate reader. […] values were determined using the GraphPad Prism software.
# [2] = system: cell lines representing different models of solid tumors (breast, prostate and pancreatic cancers); test: Growth inhibition in cell lines representing different solid tumors; assay type: cell-based; conditions: all tumor types tested: breast
# Procedure: as §1
# [3] = biological target: Polo-like Kinase-1 (PLK1) (Homo sapiens, UniProt P53350); test: Kinase profiling / inhibition of PLK1; assay type: biochemical; conditions: panel of 50 kinases
# Text: (§2) As expected, at these high concentrations, the relative % of inhibition is saturated at nearly 100% for both CDK4 and CDK6. To validate CDK4/6 and PLK1 as functional KP108 targets, we then assessed CDK4-mediated Rb phosphorylation (Ser780) and PLK1-mediated autophosphorylation (Thr210) in vitro.
# (§3) […] This was outsourced to Reaction Biology Corporation, a biopharmaceutical company focused on the development of kinase inhibitors (http://www.reactionbiology.com/webapps/site/).
# [4] = system: Rb-deficient MDA-MB-468 TNBC cells; test: Apoptosis assay (AnnexinV/PI), MDA-MB-468; assay type: cell-based
# Procedure: (§4) Apoptosis assay: Apoptotic rates were analyzed and quantified by flow cytometry following AnnexinV/PI staining on SUM159 and MDA-MB-468 breast cancer cells.
# [5] = system: CSCs (tumorsphere formation); test: Tumorsphere assay; assay type: cell-based; conditions: in vitro
# Procedure: Tumorsphere assays: Monolayer cells were enzymatically dissociated into single cells with trypsin-EDTA. Cells were plated at 10,000 cells per well in a 24-well low-attachment plate (Coming). Cells were grown for 7 days in DMEM/F12 supplemented with B27 (Invitrogen) in the presence of 10 ng/ml EGF and 10 ng/ml bFGF. Tumorsphere-forming efficiency was calculated as the number of spheres divided by the number of singles cells seeded, expressed as a percentage.
# [6] = biological target: CDK4/cyclin D3 (Homo sapiens, UniProt P11802); test: In vitro kinase assay, CDK4/cyclin D3; assay type: biochemical
# Text: (§5) In vitro kinase profiling: To assess on-target and off-target kinase affinity and specificity of our lead inhibitor KP108 in a full kinome profiling, we will test the lead compound against Reaction Biology Corporation four panels (Wild Type. Panel (374 kinases), Mutant Panel (232 kinases), Atypical Panel (20 kinases), Lipid Panel (17 lipid kinases). This was outsourced to Reaction Biology Corporation, a biopharmaceutical company focused on the development of kinase inhibitors (http://www.reactionbiology.com/webapps/site/).
# [7] = system: SKBR3 HER2+ breast cancer cells; test: ALDH+ cancer stem cell numbers (ALDEFLUOR, flow cytometry), SKBR3; assay type: cell-based; conditions: equimolar concentrations vs existing CDK4/6 inhibitors
# [8] = system: CDK4-mediated Rb phosphorylation (Ser780); test: Immunoblotting of Rb phosphorylation in TNBC cells; assay type: cell-based
# Text: as §2
# (§6) As PLK1 is overexpressed in 80% of metastatic breast cancers and the fact that it acts by blocking the G2-M phase of the cell cycle, this provides an attractive added value for KP108, further expanding its potential tumor growth inhibitory capacity.
# (§7) Western Blot After washing the infected cells with ice-cold PBS twice, 300 μL of ice-cold cell lysis buffer (1M Tris-HCl, 5M NaCl, 10% Triton, 100 mM EDTA, 100 mM Na3VO4, ×100 Protease Inhibitor, 10× Phosphatase Inhibitor) was added to the dish. All the adherent cells were scraped off the dish and the cell suspension were transferred to a microcentrifuge tube. The cell suspension was left to incubated on ice for 10 min and the cell lysate mixture was centrifuge at 12,000 RPM for 20 mins at 4° C. The supernatant was transferred to a new microcentrifuge tube on ice. The protein concentration was determined using the BCA Kit (ThermoFisher). The lysate samples were diluted in 5×SDS Buffer and were heated at 95° C. for 5 min. The ladder and the samples were loaded into the wells of a SDS PAGE gel and the gel was then run at 100V. […]
# [9] = biological target: CDK6/cyclin D3 (Homo sapiens, UniProt Q00534); test: In vitro kinase assay, CDK6/cyclin D3; assay type: biochemical
# Text: as §5
# [10] = system: PLK family members; test: Effects on PLK family members; assay type: biochemical
# [11] = system: Rb-positive SUM159 TNBC cells; test: Apoptosis assay (AnnexinV/PI), SUM159; assay type: cell-based, human
# Procedure: as §4
# [12] = system: SUM159 Rb-positive TNBC cells; test: Cell cycle progression, Rb-positive TNBC cells; assay type: cell-based, human
# [13] = system: SUM159 TNBC xenografts; test: Orthotopic SUM159 TNBC xenograft (mammary fat pad); assay type: in vivo, NSG mice
# Procedure: We further assessed our compound on breast cancer tumorigenesis in vivo, through orthotopic transplantation of SUM159 TNBC cells into the mammary fat pad of NSG mice. […] Drugs were administered through i.p. daily injections for two weeks (50 mg/kg) and tumor volumes were measured, as per our team optimized protocol^10,19.
# In vivo studies: All mice were housed and handled in accordance to the approved guidelines of the Canadian Council on Animal Care (CCAC) “Guide to the Care and Use of Experimental Animals” and under the conditions and procedures approved by the Animal Care Committee of McGill University (AUP #7497). The NSG mouse breeders were purchased from Jackson Laboratory (California, US). Female and male NSG mice between 7 and 9 weeks of age were bred and maintained in the animal facility of the Research Institute of the McGill University Health Center, as per the guidelines of the McGill University Animal Care Committee.
# Xenograft model: Human breast cancer cells, SUM159 (1×10^6/mouse) were diluted in 1:1 with Matrigel and then inoculated in 8-week old, female NSG mice by mammary fat pad route to generate breast cancer tumor. Tumor sizes were measured with a digital electronic caliper three times per week to reach maximum volume of 1000 mm3 prior to euthanasia. Tumor volumes were calculated according to the following formula: [4/3×π×(Length/2)×(Width/2)2] to generate a growth curve.
# [14] = system: Rb-deficient MDA-MB-438 cell line; test: In vitro growth inhibition (SRB), Rb-deficient MDA-MB-438; assay type: cell-based
# Procedure: as §1
# [15] = system: panel of 50 different kinases; test: Kinase profiling against a panel of 50 kinases at 100 nM; assay type: biochemical; conditions: 100 nM range, except PLK1
# Text: as §2, §3
# [16] = system: SUM159 triple negative breast cancer cells; test: ALDH+ cancer stem cell numbers (ALDEFLUOR, flow cytometry), SUM159; assay type: cell-based, human; conditions: TNBC (SUM159); equimolar concentrations vs existing CDK4/6 inhibitors
# Procedure: Flow cytometry was used to measure the ALDH+ CSC numbers, as previously described^6,11-13. […] As a result, KP108 was further selected as the first lead compound.
# ALDEFLUOR assay was performed as described in the manufacturer's protocol, 1×10^6 SUM159 cells were centrifuged and resuspended in 1 ml ALDH assay buffer. 5 μl substrate was added into the cell suspension. For negative control, 500 μl cell suspension were then transferred into a new tube containing 5 μl DEAB. Cells were then incubated for 40 min at 37° C. Percentage of ALDH+ cells were analyzed with Accuri C6 flow cytometer and Flowjo software.
# [17] = system: prostate cancer cells; test: In cellulo testing, prostate cancer; assay type: cell-based
# Procedure: (§8) Cell Culture: All the cell lines used were cultured at 37° C. in 5% CO2. HEK293T and MDA were maintained in Dulbecco's Modified Eagle Medium (DMEM) (Wisent Bio) with 10% fetal bovine serum (FBS) (Gibco). SUM159 was maintained in Ham's F-12 media with 5% FBS, 5 μg/mL insulin and 1 μg/mL hydrocortisone (Wisent Bio). HPAF-II was maintained in Eagle's Minimum Essential Medium (EMEM) (Wisent Bio) with 10% FBS. PC-3 was maintained in F-12K medium with 10% FBS.
# as §1
# [18] = system: SUM159 lung metastasis; test: Preclinical lung metastasis model (tail vein injection of TNBC cells); assay type: in vivo; conditions: NSG mice, daily I.P. 50 mg/kg for 2 weeks
# Procedure: To then functionally assess our lead in a preclinical model of tumor metastasis, immune-deficient non-obese diabetic scid gamma (NSG) mice were injected intravenously with 10^6 TNBC cells. […] Lungs were collected and stained with Bouin's solution and, the numbers of lung metastatic nodules were quantified. In vivo studies: All mice were housed and handled in accordance to the approved guidelines of the Canadian Council on Animal Care (CCAC) “Guide to the Care and Use of Experimental Animals” and under the conditions and procedures approved by the Animal Care Committee of McGill University (AUP #7497). The NSG mouse breeders were purchased from Jackson Laboratory (California, US). Female and male NSG mice between 7 and 9 weeks of age were bred and maintained in the animal facility of the Research Institute of the McGill University Health Center, as per the guidelines of the McGill University Animal Care Committee. Intravenous injection model: cells (1×106/each) were injected by tail vein route to develop lung metastases. The mice were euthanized with a maximum of 42-day (SUM159) post cancer cells injection. The lung tissues were counted for metastases nodules post Bouin's solution fixation.
# [19] = system: PLK1-mediated autophosphorylation (Thr210); test: Immunoblotting of PLK1 autophosphorylation in TNBC cells; assay type: cell-based
# Text: as §2, §6, §7
# [20] = system: pancreatic cancer cells; test: In cellulo testing, pancreatic cancer; assay type: cell-based
# Procedure: as §8, §1
# [21] = system: MDA-MB-468 Rb-deficient TNBC cells; test: Cell cycle progression, Rb-deficient TNBC cells; assay type: cell-based
# [22] = system: SUM149 TNBC cells; test: In vitro growth inhibition (SRB), SUM149; assay type: cell-based
# Procedure: as §1
# Chain of CDK4/cyclin D3 (P11802 whole entry): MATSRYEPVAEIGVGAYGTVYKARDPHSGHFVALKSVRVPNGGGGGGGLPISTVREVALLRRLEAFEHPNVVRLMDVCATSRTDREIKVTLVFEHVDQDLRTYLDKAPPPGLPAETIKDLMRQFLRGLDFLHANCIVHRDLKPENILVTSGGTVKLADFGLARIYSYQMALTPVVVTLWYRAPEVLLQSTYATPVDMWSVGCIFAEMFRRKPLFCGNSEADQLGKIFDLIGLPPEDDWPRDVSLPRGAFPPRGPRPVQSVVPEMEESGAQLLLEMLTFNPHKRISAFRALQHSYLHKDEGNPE
# Chain of CDK4/cyclin D3 (P30281 whole entry partner): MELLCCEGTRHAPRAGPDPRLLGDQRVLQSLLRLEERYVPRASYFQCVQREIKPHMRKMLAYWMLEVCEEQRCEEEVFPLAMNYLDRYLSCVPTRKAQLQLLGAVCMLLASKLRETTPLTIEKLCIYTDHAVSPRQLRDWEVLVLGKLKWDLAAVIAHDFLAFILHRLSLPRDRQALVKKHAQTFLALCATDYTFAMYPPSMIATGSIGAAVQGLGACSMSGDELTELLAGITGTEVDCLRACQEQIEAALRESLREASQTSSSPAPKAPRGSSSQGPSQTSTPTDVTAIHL
# Chain of CDK6/cyclin D3 (Q00534 whole entry): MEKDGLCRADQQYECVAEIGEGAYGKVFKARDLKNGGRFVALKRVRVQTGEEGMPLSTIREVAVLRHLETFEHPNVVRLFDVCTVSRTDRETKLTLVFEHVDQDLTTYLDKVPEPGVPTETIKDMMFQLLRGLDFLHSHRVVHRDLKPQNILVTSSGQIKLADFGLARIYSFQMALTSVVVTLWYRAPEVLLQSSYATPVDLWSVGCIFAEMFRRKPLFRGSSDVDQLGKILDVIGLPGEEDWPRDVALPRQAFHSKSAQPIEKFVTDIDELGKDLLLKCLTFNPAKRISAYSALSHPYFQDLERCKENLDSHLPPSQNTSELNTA
# Chain of CDK6/cyclin D3 (P30281 whole entry partner): as the sequence (P30281 whole entry partner) above
# Chain of Polo-like Kinase-1 (PLK1) (P53350 whole entry): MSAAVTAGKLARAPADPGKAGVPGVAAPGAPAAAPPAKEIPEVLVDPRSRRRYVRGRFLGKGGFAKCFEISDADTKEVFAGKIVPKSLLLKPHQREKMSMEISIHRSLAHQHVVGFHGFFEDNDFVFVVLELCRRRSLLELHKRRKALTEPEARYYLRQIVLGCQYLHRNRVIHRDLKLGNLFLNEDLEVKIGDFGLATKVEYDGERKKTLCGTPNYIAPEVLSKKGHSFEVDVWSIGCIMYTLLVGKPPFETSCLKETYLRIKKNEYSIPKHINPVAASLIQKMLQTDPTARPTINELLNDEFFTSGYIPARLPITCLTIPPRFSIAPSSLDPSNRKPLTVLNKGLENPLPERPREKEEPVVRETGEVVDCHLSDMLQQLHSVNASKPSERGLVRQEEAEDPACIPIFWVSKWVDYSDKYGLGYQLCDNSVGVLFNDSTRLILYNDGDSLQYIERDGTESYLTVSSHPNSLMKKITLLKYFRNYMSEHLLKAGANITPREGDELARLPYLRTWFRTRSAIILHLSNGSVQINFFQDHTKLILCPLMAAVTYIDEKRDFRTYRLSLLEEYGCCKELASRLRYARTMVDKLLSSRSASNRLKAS
smiles,measurement,setting,value
"C=CC(=O)Nc1ccc(C(=O)N2CCN(c3ccc(Nc4ncc5c(C)c(C(C)=O)c(=O)n(C6CCCC6)c5n4)nc3)CC2)cc1 [KP108, N-(4-(4-(6-((6-acetyl-8-cyclopentyl-5-methyl-7-oxo-7,8-dihydropyrido[2,3-d]pyrimidin-2-yl)amino}pyridin-3-yl)piperazine-1-carbonyl)phenyl)acrylamide]",activity in cellulo,[1],great activity in cellulo
same,IC50 compared with palbociclib,[2],lower IC50in all tumor types tested
same,inhibition of PLK1,[3],efficiently inhibit; also recorded: highlighting PLK1 as a potential KP108 target
same,pro-apoptotic effect,[4],significant pro-apoptotic effect; also recorded: almost complete cell death
same,reduction of tumorsphere formation,[5],superior efficacy in reducing tumorsphere formation
same,selectivity to CDK4 than CDK6,[6]; CDK4 vs CDK6,26 times
same,pIC50,[6]; in vitro kinase assay,9.11
same,"relative % of inhibition, CDK4","[6]; kinase panel, 100 nM range",~100%
same,elimination of ALDH+ CSCs,[7],significant superior efficacy; also recorded: nearly maximal efficacy
same,block of Rb phosphorylation (Ser780),[8],efficiently block phosphorylation
same,pIC50,[9]; in vitro kinase assay,7.69
same,"relative % of inhibition, CDK6","[9]; kinase panel, 100 nM range",~100%
same,effects on other PLK family members,[10],only targets PLK1
same,pro-apoptotic effect,[11],significant pro-apoptotic effect
same,effect on cell cycle progression,[12],induce G1 arrest
same,primary tumor development (tumor volume),"[13]; NSG mice, i.p. daily for two weeks, 50 mg/kg",great efficacy and sustained activity; also recorded: great efficacy in preventing primary tumor development
same,tumor growth once injections were stopped,[13]; after end of the two-week 50 mg/kg i.p. treatment,"growth inhibitory effects sustained over time, even once injections were stopped"
same,animal health / weight,"[13]; treated mice, 50 mg/kg i.p. daily",did not affected animal health
same,activity in cellulo,[14],great activity in cellulo
same,off-target cross-reactivity in kinase panel,[15],no or little cross-reactivity
same,elimination of ALDH+ CSCs,[16],significant superior efficacy; also recorded: nearly maximal efficacy
same,activity in cellulo,[17],very active
same,lung colonization / lung metastatic nodules,[18],"great efficacy and sustained activity; also recorded: significantly prevented, to almost completely block lung colonization"
same,block of PLK1 autophosphorylation (Thr210),[19],efficiently block phosphorylation
same,activity in cellulo,[20],very active
same,effect on cell cycle progression,[21],efficiently induce G2 arrest; also recorded: dose-dependent increase in the G2 phase
same,activity in cellulo,[22],great activity in cellulo

# Source: patent publication US12195456B1, “Single molecules having mixed CDK4, CDK6, PLK1 targeting properties” (priority 2019, dated 2025)
